Data: patent publication US12227500B2, “Substituted pyrrolo[2,3-b]pyridines for suppressing toxic endoplasmic reticulum stress” (THE TRUSTEES OF COLUMBIA UNIVERSITY IN THE CITY OF NEW YORK, priority 2018, dated 2025)
Read-outs that look alike come from different tables or passages of the source.

Tests used:
[1] = test system: ESC-derived spinal motor neurons and interneurons; assay: Toxicity of ER stressors in mouse ESC-derived spinal neuron cultures; format: cell-based; conditions: for sensitivity of spinal motor neurons vs dorsal interneurons: co-cultures, increasing concentrations
Source text: One of the selective stressors that we identified was cyclopiazonic acid (CPA), a mycotoxin that reversibly blocks the sarcoendoplasmic reticulum-associated calcium ATPse (SERCA). SERCA is responsible for sequestering calcium from the cytoplasm into the endoplasmic reticulum (ER) (Goeger et al. 1988). SERCA inhibition lowers calcium concentration in the ER, leading to dysfunction of protein folding, activation of the unfolded protein response, ER stress, and apoptosis (Doutheil et al. 1997). […]. For all subsequent experiments, unless stated otherwise, motor neurons were treated with 7.5 μM CPA.
[…]. […] […].
For this analysis, we generated a new ESC line that expresses tdTomato in dI4 and dIL dorsal spinal inhibitory interneurons derived from Ptf1α-expressing progenitors (Hoang et al. 2017, unpublished data). We differentiated this line under conditions that promote the specification of dorsal interneuron identity. FACS-purified tdTomato-expressing interneurons were co-cultured with FACS-purified GFP-expressing spinal motor neurons (FIG. 16E and FIG. 16G).
To strengthen the link between the activation of ER stress and motor neuron degeneration, we extended our study to include two additional compounds that activate ER stress: thapsigargin, a drug that acts similarly to CPA by inhibiting SERCA pumps, but is irreversible (Lytton et al. 1991), and tunicamycin, a drug that triggers ER stress in a calcium-independent manner by inhibiting protein N-glycosylation in the ER (Oslowski et al. 2011). […] Thus, the motor neuron-toxic effects of CPA are likely related to its activation of ER stress pathways and not to its effects on calcium levels or other off-target effects (FIG. 16G).

[2] = test system: human stem cell-derived motor neurons derived from a healthy patient; assay: CPA survival assay, wild-type human stem cell-derived motor neurons; conditions: for motor neuron survival restored, % of vehicle controls (maximum): CPA 33 μM, at 1.2 μM (PF-6260933), 2.4 μM (GNE-495), 0.6 μM (URMC-099)
[3] = test system: HB9::GFP-SOD1^+/A4V human motor neurons; assay: Rescue of CPA toxicity in human ESC-derived motor neurons, SOD1^+/A4V; format: cell-based
Source text: (§1) One advantage of the stem cell-derived motor neuron survival assay is that it can be easily extended to human motor neurons. To adapt the assay to human cells, we generated a new isogenic pair of ESC lines derived from a human ESC line expressing GFP under the control of the Hb9 motor neuron promoter (HUES3 HB9::GFP, (Di Giorgio et al. 2008)). […] . The pair of cell lines was differentiated into motor neurons in parallel using previously published protocols (Amoroso et al. 2013; […] .
(§2) Differentiation of human isogenic HUES3 ESC HB9::GFP reporter lines into motor neurons was performed as previously described (Maury et al. 2015). Cells were dissociated on day 16 of differentiation, FACS-sorted and plated on poly-ornithine- and laminin-coated surfaces as above. Serum-free human motor neuron plating media was supplemented with the antimitotic UFdU and the neurotrophic factors GDNF, BDNF, CNTF, and IGF1 (all at 10 ng/mL) as described (Johnson-Kerner et al. 2015).

hSOD1^G93A motor neurons = assay: RT-PCR of stress-associated genes after CPA treatment; format: cell-based, mouse
Experimental: . We observed a rapid increase in the expression of Bip and the key downstream effector Chop (Ddit3). Bip was increased 2-fold after 1 hour of CPA exposure, and continued to increase to approximately 5-fold by 8 hours. […] Other genes with >2-fold induction included: p58/PK 255 (6.5 fold at 8 hours), an ER-stress-induced protein kinase; Growth arrest and DNA-damage inducible protein 45 alpha (Gadd45a; […]; Erdj4, a Bip cofactor with involvement in ER associated protein degradation (ERAD) (5-fold at 4-8 hours); Atf4, a downstream mediator of the PERK-axis of the UPR (3-fold at 8 hours); […]; and Nrf2, a PERK substrate (2 fold at 8 hours). Altogether, these expression changes pointed to strong activation of multiple axes of the unfolded protein response (UPR) in motor neurons exposed to CPA (FIG. 19F).
Samples were lysed in TRIzol and frozen at −80° C. until further processing. RNA was extracted using the Qiashredder and Qiagen RNeasy Mini kits (Qiagen) according to the manufacturer's protocol. 1-2 μg total RNA was used for each reverse transcription reaction, and reactions were performed using the TaqMan RT kit (Applied Biosystems, Grand Island, NY, USA). Primer pairs were designed for target transcripts using Primer Express 3.0 (Applied Biosystems). Quantitative PCR reactions were performed using the Power SYBR Green PCR Master Mix (Applied Biosystems). Reactions were run and analyzed on a ViiA 7 (Life Technologies) qPCR instrument using absolute quantification settings.

[4] = test system: HB9::GFP-SOD1^+/+ human motor neurons; assay: Rescue of CPA toxicity in human ESC-derived motor neurons, SOD1^+/+; format: cell-based; conditions: 33 μM CPA; for rescue of CPA-induced cell death: WT motor neurons
Source text: as §1, §2

N9 microglial cells = assay: TNFα release by LPS-stimulated microglia (ELISA); format: cell-based, mouse; conditions: LPS 0.1-5 μM; 24 h
Experimental: To model microglial activation in vitro, we stimulated mouse N9 microglial cells with increasing concentrations of E. coli-derived lipopolysaccharides (LPS) (0.1-5 μM) to measure release of the pro-inflammatory cytokine TNFα into cell culture media.
Cultures were maintained in DMEM containing FBS (10%, Life Technologies) and Glutamax (1%, Life Technologies). […] N9 cells remaining in the culture dishes were treated with AlamarBlue (Thermo Fisher) to assess viability. 5 μL AlamarBlue was added to each well (containing 50 μL culture media) and incubated for 4 h at 37°.

HGK/MAP4K4 [5] = target: T1, HGK/MAP4K4 (Homo sapiens, UniProt O95819); assay: Radiolabeled ATP kinase assay (Reaction Biology Corp.), HGK; format: biochemical; set-up: purchased Reaction Biology Corp; conditions: 10 μM ATP, read-out: % Enzyme Activity (relative to DMSO controls), HGK/MAP4K4, Data 1
Experimental: (§3) Meanwhile, the same analogs were analyzed in a radiolabeled ATP assay (10 μM ATP; Reaction Biology Corp.) to compare the extent to which they could inhibit the activity of HGK, MLK1, or MLK3 in a cell-free environment (Table S3 and S4).
Target sequence in this assay (O95819 whole entry): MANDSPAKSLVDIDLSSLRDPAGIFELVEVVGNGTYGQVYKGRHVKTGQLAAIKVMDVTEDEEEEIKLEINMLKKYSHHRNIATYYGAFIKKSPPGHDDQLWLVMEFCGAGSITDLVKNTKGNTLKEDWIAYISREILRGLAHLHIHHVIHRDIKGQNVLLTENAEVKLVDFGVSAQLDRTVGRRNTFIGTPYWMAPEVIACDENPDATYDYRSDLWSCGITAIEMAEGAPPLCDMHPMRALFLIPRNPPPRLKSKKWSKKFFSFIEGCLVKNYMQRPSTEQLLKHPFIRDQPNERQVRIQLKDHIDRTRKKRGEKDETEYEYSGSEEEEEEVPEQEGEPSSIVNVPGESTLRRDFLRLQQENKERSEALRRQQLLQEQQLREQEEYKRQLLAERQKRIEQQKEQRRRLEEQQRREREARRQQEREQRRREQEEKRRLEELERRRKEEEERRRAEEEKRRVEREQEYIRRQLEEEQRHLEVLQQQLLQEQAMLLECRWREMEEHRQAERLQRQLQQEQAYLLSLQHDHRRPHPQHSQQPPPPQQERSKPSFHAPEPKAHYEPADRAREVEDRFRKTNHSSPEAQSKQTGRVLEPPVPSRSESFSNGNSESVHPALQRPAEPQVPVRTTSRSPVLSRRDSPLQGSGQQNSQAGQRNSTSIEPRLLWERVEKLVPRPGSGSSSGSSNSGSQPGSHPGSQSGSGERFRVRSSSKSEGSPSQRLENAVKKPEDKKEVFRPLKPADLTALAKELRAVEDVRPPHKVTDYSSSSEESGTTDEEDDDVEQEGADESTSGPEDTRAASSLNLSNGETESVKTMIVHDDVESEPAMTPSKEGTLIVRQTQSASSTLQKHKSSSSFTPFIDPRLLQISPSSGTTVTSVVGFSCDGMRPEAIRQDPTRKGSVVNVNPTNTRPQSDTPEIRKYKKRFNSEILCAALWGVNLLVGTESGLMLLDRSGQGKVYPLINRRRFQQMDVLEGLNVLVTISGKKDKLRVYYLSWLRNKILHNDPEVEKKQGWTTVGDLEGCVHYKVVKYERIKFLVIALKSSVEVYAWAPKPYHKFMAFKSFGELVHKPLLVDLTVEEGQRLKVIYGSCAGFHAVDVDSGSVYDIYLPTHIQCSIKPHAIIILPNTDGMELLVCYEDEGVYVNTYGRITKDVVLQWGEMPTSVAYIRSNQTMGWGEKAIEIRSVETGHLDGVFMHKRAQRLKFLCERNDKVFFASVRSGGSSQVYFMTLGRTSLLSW

MLK3/MAP3K11 = target: T2, MLK3/MAP3K11 (Homo sapiens, UniProt Q16584); assay: Radiolabeled ATP kinase assay (Reaction Biology Corp.), MLK3; format: biochemical; conditions: 0.1 μM
T2 construct: purchased Reaction Biology Corp
Experimental: as §3

[6] = test system: human ES motor neurons carrying the ALS-causing SOD1^A4V mutation; assay: cells; format: cell-based; conditions: 72 h
Experimental: Next, survival assays were performed with all the analogs at once to generate a low-variability dataset. All compounds were evaluated at concentrations ranging from 0.1-3.0 μM (five-point dilution) in three technical replicates and two biological replicates.

HGK/MAP4K4 [7] = target: T1, HGK/MAP4K4; conditions: Ammirati et al. 2015; Ndubaku et al. 2015; cited from earlier work
Target sequence in this assay (O95819 whole entry, species assumed): as the sequence (O95819 whole entry) above

human ES motor neurons = assay: Rescue of CPA toxicity by kinase inhibitors in dilution series (FIG. 3); conditions: for rescue of CPA toxicity: dilution series, FIG. 3
NUAK1 = NUAK1 (Homo sapiens, UniProt O60285); conditions: 0.5 μM inhibitor; Anastassiadis et al. 2011; cited from earlier work
NUAK1, sequence (O60285 whole entry, species assumed): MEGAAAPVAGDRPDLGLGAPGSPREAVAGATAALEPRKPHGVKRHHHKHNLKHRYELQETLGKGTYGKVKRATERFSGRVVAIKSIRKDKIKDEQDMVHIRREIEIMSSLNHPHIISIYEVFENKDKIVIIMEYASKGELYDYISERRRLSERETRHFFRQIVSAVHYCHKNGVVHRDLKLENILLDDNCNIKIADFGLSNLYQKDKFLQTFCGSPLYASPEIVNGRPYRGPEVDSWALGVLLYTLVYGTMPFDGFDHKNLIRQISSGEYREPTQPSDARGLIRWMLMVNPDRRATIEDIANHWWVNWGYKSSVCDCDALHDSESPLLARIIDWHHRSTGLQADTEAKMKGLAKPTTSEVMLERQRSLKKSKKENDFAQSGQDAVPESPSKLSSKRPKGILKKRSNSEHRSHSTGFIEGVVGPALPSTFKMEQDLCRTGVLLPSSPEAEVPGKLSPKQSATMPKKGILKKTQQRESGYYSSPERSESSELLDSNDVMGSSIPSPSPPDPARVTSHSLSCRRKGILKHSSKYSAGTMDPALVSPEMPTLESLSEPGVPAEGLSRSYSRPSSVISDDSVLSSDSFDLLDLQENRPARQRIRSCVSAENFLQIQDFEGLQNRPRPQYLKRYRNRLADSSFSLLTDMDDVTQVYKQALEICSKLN

T2 sequence (Q16584 whole entry): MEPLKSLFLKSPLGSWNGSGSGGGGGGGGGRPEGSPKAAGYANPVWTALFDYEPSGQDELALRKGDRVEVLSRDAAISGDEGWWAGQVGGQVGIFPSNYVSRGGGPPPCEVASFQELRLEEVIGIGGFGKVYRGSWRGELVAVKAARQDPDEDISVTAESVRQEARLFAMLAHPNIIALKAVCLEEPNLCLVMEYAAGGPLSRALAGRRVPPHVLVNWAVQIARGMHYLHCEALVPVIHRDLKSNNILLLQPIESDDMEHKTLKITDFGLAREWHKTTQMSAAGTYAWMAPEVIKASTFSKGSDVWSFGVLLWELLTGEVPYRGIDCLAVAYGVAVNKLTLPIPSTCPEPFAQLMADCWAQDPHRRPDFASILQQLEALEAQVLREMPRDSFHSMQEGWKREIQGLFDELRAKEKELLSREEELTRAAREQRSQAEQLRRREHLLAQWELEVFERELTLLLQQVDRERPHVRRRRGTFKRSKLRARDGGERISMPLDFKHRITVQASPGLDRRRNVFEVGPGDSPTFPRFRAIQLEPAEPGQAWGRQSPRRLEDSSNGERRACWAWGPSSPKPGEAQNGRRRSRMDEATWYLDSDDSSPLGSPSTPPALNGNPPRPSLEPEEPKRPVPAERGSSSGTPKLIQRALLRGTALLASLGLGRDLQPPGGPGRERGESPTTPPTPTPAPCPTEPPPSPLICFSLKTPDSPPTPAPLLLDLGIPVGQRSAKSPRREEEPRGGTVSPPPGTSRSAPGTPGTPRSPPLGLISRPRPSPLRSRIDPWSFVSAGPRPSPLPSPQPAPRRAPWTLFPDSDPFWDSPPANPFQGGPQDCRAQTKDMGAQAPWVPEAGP

Question: For CC(=O)C1=C(O)[C@@H]2[C@H]3c4c[nH]c5cccc(c45)C[C@H]3C(C)(C)N2C1=O [CPA, cyclopiazonic acid], which “effective concentration range at which mutant motor neurons exhibit reduced survival compared to control” value [1] is on record?
Answer: 6.25 to 12.5 µM

Question: And the “reduction of survival of GFP− Tuj-1+ non-motor neurons” value [1]?
Answer: ~23%

Question: And the “reduction of survival of motor neurons (GFP+, Tuj1+)” value [1]?
Answer: ~71%

Question: What about the “reduction of co-cultured spinal motor neuron survival” value ([1]; FACS-purified co-culture, CPA) of the same compound?
Answer: ~70%

Question: What about the “reduction of dorsal spinal interneuron survival” value ([1]; FACS-purified co-culture, CPA) of the same compound?
Answer: ~17%

Question: And the “motor neuron survival, % of controls treated with vehicle alone” value ([2]; CPA 33 μM for 72h, alone)?
Answer: ~40%

Question: What about the “loss of motor neurons” value ([3]; 33 μM CPA) of the same compound?
Answer: ~86%

Question: And the Erdj4 induction (hSOD1^G93A motor neurons; 4-8 hours)?
Answer: 5 fold

Question: What about the Chop induction (hSOD1^G93A motor neurons; 4 and 8 hours) of the same compound?
Answer: 16 fold

Question: What about the Chop induction (hSOD1^G93A motor neurons; 1 hour) of the same compound?
Answer: 4 fold

Question: And the Bip expression increase (hSOD1^G93A motor neurons; 1 hour of CPA exposure)?
Answer: 2 fold

Question: What about the Gadd45a induction (hSOD1^G93A motor neurons; 4 hours) of the same compound?
Answer: 5 fold

Question: What about the Atf4 induction (hSOD1^G93A motor neurons; 8 hours) of the same compound?
Answer: 3 fold

Question: What about the Bip expression increase (hSOD1^G93A motor neurons; 8 hours) of the same compound?
Answer: approximately 5 fold

Question: And the Calreticulin induction (hSOD1^G93A motor neurons; 8 hours)?
Answer: 3 fold

Question: What about the Nrf2 induction (hSOD1^G93A motor neurons; 8 hours) of the same compound?
Answer: 2 fold

Question: And the p58/PK induction (hSOD1^G93A motor neurons; 8 hours)?
Answer: 6.5 fold

Question: And the “loss of motor neurons” value [4]?
Answer: ~71%

Question: What does the source list for CN1CC2CCC(C1)N2Cc1ccc(-c2cnc3[nH]cc(-c4cccc5[nH]ncc45)c3c2)cc1 [Compound 12e, 4-(5-(4-((3-Methyl-3,8-diazabicyclo[3.2.1]octan-8-yl)methyl)phenyl)-1H-pyrrolo[2,3-b]pyridin-3-yl)-1H-indazole]?
Answer: TNFα secretion in LPS-stimulated microglia (N9 microglial cells): did not significantly decrease TNFα levels; remaining activity at 0.025 µM (HGK/MAP4K4 [5]; [Cmpd] 0.025 μM): 2.73%; remaining activity at 0.1 µM (HGK/MAP4K4 [5]; [Cmpd] 0.1 μM): 0.99%; remaining activity at 0.1 µM (MLK3/MAP3K11): 71.8%; EC50 ([6]; CPA 33 μM): Amibiguous; viability at 1 µM ([6]; Homo sapiens, Neuron, CPA (33 μM) + compound (1 μM), read-out: Motor Neuron Survival, % untreated): 106%; Emax ([6]; Homo sapiens, Neuron, CPA 33 μM, read-out: Emax (MN survival % untreated)): 144%

Question: For COC(=O)[C@@]1(O)C[C@H]2O[C@]1(C)n1c3ccccc3c3c4c(c5c6ccccc6n2c5c31)C(=O)NC4 [Compound K-252a], which “rescue of CPA-induced cell death” value [3] is on record?
Answer: 100%

Question: What about the “rescue of CPA-induced cell death” value [4] of the same compound?
Answer: 56%

Question: Which “motor neuron survival restored, % of vehicle controls (maximum)” value [2] does the source give for Nc1ncc(C(=O)NC2CN(C(=O)C3CC3)C2)c2ccc(-c3cccc(F)c3)nc12 [GNE-495] here?
Answer: 73%

Question: And the IC50 (HGK/MAP4K4 [7])?
Answer: 3.7 nM

Question: And the “rescue of CPA toxicity” value (human ES motor neurons)?
Answer: similarly neuroprotective

Question: With Cn1c2ccccc2c2c3c(c4c5ccccc5n(CCC#N)c4c21)CNC3=O [Go 6976] as the compound, how does the “rescue of CPA-induced cell death” value ([3]; SOD1^A4V motor neurons, 33 μM CPA) read?
Answer: 34%

Question: And the “rescue of CPA-induced cell death” value [4]?
Answer: 45%

Question: Which “motor neuron survival restored, % of vehicle controls (maximum)” value [2] does the source give for Nc1ccc(-c2cnc(N)c(-c3ccc(Cl)cc3)c2)cn1 [PF-6260933] here?
Answer: 63%

Question: And the IC50 (HGK/MAP4K4 [7])?
Answer: 3.7 nM

Question: What about the “rescue of CPA toxicity” value (human ES motor neurons) of the same compound?
Answer: protected against CPA toxicity in a dose-dependent manner

Question: With CN(C)S(=O)(=O)c1ccc2c(c1)/C(=C/c1cc3c([nH]1)CCCC3)C(=O)N2 [SU6656] as the compound, how does the NUAK1 activity remaining (NUAK1) read?
Answer: 10.9%

Question: And the “rescue of CPA toxicity” value (human ES motor neurons)?
Answer: failed to rescue CPA toxicity

Question: What does the source list for CCC(=O)Nc1cccc(Oc2nc(Nc3ccc(N4CCN(C)CC4)cc3OC)ncc2Cl)c1 [WZ4003]?
Answer: rescue of CPA toxicity ([2]; 8-point dilution series): unable to rescue CPA toxicity; concentration that potentiated CPA-induced neurodegeneration and was toxic without CPA (human ES motor neurons): ≥ 1000 nM; rescue of CPA toxicity (human ES motor neurons): unable to rescue CPA toxicity

Question: With C/C=C(/C)C(=O)O[C@H]1C(C)=C2[C@H]([C@@H]1OC(=O)CCCCCCC)[C@@](C)(OC(C)=O)C[C@H](OC(=O)CCC)[C@@]1(O)[C@H]2OC(=O)[C@@]1(C)O [thapsigargin] as the compound, how does the “sensitivity of spinal motor neurons vs dorsal interneurons” value [1] read?
Answer: selectively sensitive

Question: Which “sensitivity of spinal motor neurons vs dorsal interneurons” value [1] does the source give for tunicamycin here?
Answer: selectively sensitive
